{"source": "patent US20220211687A1", "about": "“USE OF ARIMOCLOMOL IN THE TREATMENT OF NIEMANN PICK DISEASE” (Orphazyme A/S, priority 2020, published 2022)", "key": {"[1]": {"system": "Niemann-Pick disease type C (NPC)", "assay": "17-domain (full) NPCCSS score excluding hearing domains, phase 2/3 trial", "assay_type": "in vivo, human", "details": "for Full NPCCSS score (excluding hearing domains), LS mean change from baseline, Arimoclomol vs placebo: Difference: p=0.5726", "description": "As would be appreciated by the skilled artisan, progression of NPC in a subject can be tracked by a clinician using the NPC composite clinical severity scale (hereafter “NPCCSS”; see Yanjanin NM et al. Am J Med Genet B Neuropsychiatr Genet, 2010; 153B (1): 132-140, incorporated herein by reference in its entirety). A full “17-domain NPCCSS score” incorporates clinical signs and symptoms in nine major (ambulation, cognition, eye movement, fine motor, hearing, memory, seizures, speech, swallowing) and eight minor (auditory brainstem response, behavior, gelastic cataplexy, hyperreflexia, incontinence, narcolepsy, psychiatric, respiratory problems) domains to determine a score which describes the severity of the subject's NPC progression (a higher score, the more progressed/severe the disease is). An abridged “5-domain NPCCSS score” is also used by clinicians, and incorporates clinical signs and symptoms from the major domains of ambulation, cognition, fine motor, speech and swallowing (see Cortina-Borj a M et al. OrphanetJRare Dis, 2018; 13 (1): 143; 3, incorporated herein by reference in its entirety).\n(§1) Routine clinical care was maintained throughout the trial (including administration of miglustat). Each participant was randomized to receive arimoclomol or placebo three times daily. Arimoclomol was administered orally or by feeding tube at 93-372 mg/day based on the patient's body weight up to the estimated equivalence of 372 mg/day for adults (body weight >55 kg) or of 124 mg three times a day."}, "[2]": {"system": "Niemann-Pick disease type C (NPC)", "assay": "NPC clinical database (NPC-cdb) score, phase 2/3 trial", "assay_type": "in vivo, human", "details": "for NPC-cdb score change from baseline to 12 months, Arimoclomol vs placebo: Difference: p=0.3785", "quoted_text": "Additional secondary endpoints included: change from baseline in scale for assessment and rating of ataxia (SARA) score at 6 and 12 months; change in the nine-hole peg test (9-HPT) result at 6 and 12 months; change in health-related quality of life (HRQoL) as measured by the 5-dimension 3-level EuroQol questionnaire, youth version (EQ-5D-3L Y proxy) at 6 and 12 months; change in individual 5-domain NPCCSS score at month 12; and NPC clinical database (NPC-cdb) score changes from baseline at trial time points. The NPC-cdb score aims to reflect clinical status; an increase in score indicates a reduction in the patient's abilities."}, "[3]": {"system": "Niemann-Pick disease type C (NPC)", "assay": "EQ-5D-3L Y proxy health-related quality of life, phase 2/3 trial", "assay_type": "in vivo, human", "experimental": "EQ-5D-3L Y proxy: The HRQoL of individuals in the trial was measured using the child-friendly version of the EQ-5D-3L Y proxy questionnaire. The questionnaire was completed by the patient's caregiver as a proxy for the individual."}, "[4]": {"system": "Niemann-Pick disease type C (NPC)", "assay": "Nine-hole peg test (9-HPT), phase 2/3 trial", "assay_type": "in vivo, human", "details": "for 9-HPT time, change from baseline to 12 months, LS mean: arimoclomol group", "description": "9-HPT: The 9-HPT is a direct and simple measurement of fine motor coordination, hand/eye coordination, and the ability to follow a simple direction, measured in seconds for each hand. The test is not applicable for children under 4 years of age. See Poole J L, Burtner PA, Torres TA, et al. Measuring dexterity in children using the Nine-hole Peg Test. J Hand Ther. 2005; 18:348-51."}, "[5]": {"assay": "Safety evaluation (TEAEs), 12-month double-blind phase 2/3 trial", "assay_type": "in vivo, human", "experimental": "as §1"}, "[6]": {"system": "Niemann-Pick disease type C (NPC)", "assay": "5-domain NPCCSS score, open-label extension (OLE) of phase 2/3 trial", "assay_type": "in vivo, human"}, "[7]": {"system": "Niemann-Pick disease type C (NPC)"}, "[8]": {"details": "evidenced by presence in cerebrospinal fluid of treated ALS patients; cited from earlier work"}, "[9]": {"assay": "Safety in open-label extension (OLE) of phase 2/3 trial", "quoted_text": "All OLE patients received arimoclomol; routine clinical care, including miglustat, was maintained."}}}
{"smiles": "[O-][n+]1cccc(/C(Cl)=N/OC[C@H](O)CN2CCCCC2)c1", "note": "[Arimoclomol, N-[(2R)-2-hydroxy-3-piperidin-1-ylpropoxy]-1-oxidopyridin-1-ium-3-carboximidoyl chloride]", "values": [{"measurement": "Full NPCCSS score (excluding hearing domains), LS mean change from baseline", "setting": "[1]; 12 months, arimoclomol group", "result": 1.24}, {"measurement": "Full NPCCSS score (excluding hearing domains), LS mean change from baseline, Arimoclomol vs placebo: Difference", "setting": "[1]; 12 months", "result": "−1.56"}, {"measurement": "Full NPCCSS score (excluding hearing domains), LS mean change from baseline, Arimoclomol vs placebo: Difference", "setting": "[1]; 12 months, listed as arimoclomol", "result": "numerically in favor of arimoclomol"}, {"measurement": "Full NPCCSS score (excluding hearing domains) at 12 months, Mean", "setting": "[1]; arimoclomol group n=25", "result": 1.2}, {"measurement": "Full NPCCSS score (excluding hearing domains) at 12 months, Median", "setting": "[1]; arimoclomol group n=25", "result": 1.0}, {"measurement": "NPC-cdb score change from baseline to 12 months, LS mean", "setting": "[2]; arimoclomol group", "result": 1.85}, {"measurement": "NPC-cdb score change from baseline to 12 months, Arimoclomol vs placebo: Difference", "setting": "[2]", "result": "−3.03"}, {"measurement": "NPC-cdb score change from baseline to 12 months, Arimoclomol vs placebo: Difference", "setting": "[2]; listed as arimoclomol", "result": "numerically in favor of arimoclomol"}, {"measurement": "EQ-5D-3L Y proxy, Improved at 12 months, %", "setting": "[3]; arimoclomol group", "result": "(25.9) %"}, {"measurement": "EQ-5D-3L Y proxy, Worsened at 12 months, %", "setting": "[3]; arimoclomol group", "result": "(44.4) %"}, {"measurement": "EQ-5D-3L Y proxy, Worsened at 12 months, Arimoclomol vs placebo: Difference", "setting": "[3]; p=0.1804", "result": 24.4, "unit": "%"}, {"measurement": "EQ-5D-3L Y proxy, Improved at 12 months, Arimoclomol vs placebo: Difference", "setting": "[3]; p=0.4880", "result": "−14.1", "unit": "%"}, {"measurement": "9-HPT time, change from baseline to 12 months, LS mean", "setting": "[4]; Dominant hand", "result": -3.29, "unit": "s"}, {"measurement": "9-HPT time, change from baseline to 12 months, Arimoclomol vs placebo: Difference", "setting": "[4]; Dominant hand, p=0.7283", "result": 3.20, "unit": "s"}, {"measurement": "9-HPT time, change from baseline to 12 months, LS mean", "setting": "[4]; Non-dominant hand", "result": 11.68, "unit": "s"}, {"measurement": "9-HPT time, change from baseline to 12 months, Arimoclomol vs placebo: Difference", "setting": "[4]; Non-dominant hand, p=0.7708", "result": -5.91, "unit": "s"}, {"measurement": "Tolerability", "setting": "[5]; 12-month placebo-controlled trial", "result": "well tolerated"}, {"measurement": "Number of patients with increase in serum creatinine level over 1.5 times baseline", "setting": "[5]; arimoclomol group", "result": "Six"}, {"measurement": "Number of patients with serum creatinine level over twice baseline", "setting": "[5]; arimoclomol group", "result": "two"}, {"measurement": "Patients with serious TEAEs", "setting": "[5]; arimoclomol group 5/34", "result": 14.7, "unit": "%"}, {"measurement": "Patients with vomiting (most common TEAE)", "setting": "[5]; arimoclomol group 8/34", "result": 23.5, "unit": "%"}, {"measurement": "Upper respiratory tract infection and decreased weight, frequency versus placebo", "setting": "[5]; double-blind phase", "result": "occurred more frequently"}, {"measurement": "Patients with TEAEs (adverse event incidence)", "setting": "[5]; double-blind phase, 12 months, arimoclomol group 30/34", "result": 88.2, "unit": "%"}, {"measurement": "Changes in vital signs, electrocardiograms, or other laboratory values", "setting": "[5]; during the trial", "result": "no significant changes"}, {"measurement": "Patients with TEAEs that led to trial drug discontinuation", "setting": "[5]; three patients, four TEAEs (urticaria x2, angioedema, increased blood creatinine)", "result": 8.8, "unit": "%"}, {"measurement": "Benefit over a two-year period", "setting": "[6]; 12-month OLE after 12-month double-blind part", "result": "sustained benefit"}, {"measurement": "Treatment effect over 36 months", "setting": "[6]; OLE, 36 months", "result": "sustained treatment effect"}, {"measurement": "5D-NPCCSS mean (SD) change from baseline at M36", "setting": "[6]; arimoclomol-arimoclomol group, 3 years' arimoclomol treatment (DB and OLE)", "result": "3.5 (5.6)"}, {"measurement": "Progression in OLE compared to placebo-controlled part", "setting": "[6]; patients who received arimoclomol for a total of two years, mainly due to patients under 4 years", "result": "greater progression"}, {"measurement": "5-domain NPCCSS progression", "setting": "[6]; patients who switched from placebo to arimoclomol, 12-month open label extension", "result": 0.23}, {"measurement": "5D-NPCCSS mean (SD) change from baseline at M36", "setting": "[6]; placebo-arimoclomol group, 2 years' arimoclomol treatment (OLE only)", "result": "0.9 (2.1)"}, {"measurement": "Early treatment initiation versus delayed start of treatment", "setting": "[6]; predefined subgroups: patients 4 years and older, patients receiving miglustat", "result": "greater benefit than delayed start of treatment"}, {"measurement": "Benefit of sustained treatment across subgroups at M36", "setting": "[6]; subgroups: aged >4 years, treated with miglustat, without double functional null mutations", "result": "consistent benefit"}, {"measurement": "SARA score change from baseline to 12 months, LS mean", "setting": "[7]; arimoclomol group", "result": 1.06}, {"measurement": "SARA score change from baseline to 12 months, Arimoclomol vs placebo: Difference", "setting": "[7]; p=0.7899", "result": 0.28}, {"measurement": "Blood-brain barrier penetration", "setting": "[8]", "result": "crosses the blood—brain barrier"}, {"measurement": "Adverse events incidence", "setting": "[9]; M12-24", "result": 87.8, "unit": "%"}, {"measurement": "Adverse events incidence", "setting": "[9]; M24-36", "result": 85.3, "unit": "%"}, {"measurement": "Safety and tolerability", "setting": "[9]; over 24 months", "result": "safe and well-tolerated"}, {"measurement": "Tolerability", "setting": "[9]; over 36 months", "result": "well tolerated"}]}
